In brackets after ≈: the same amount, converted by molar mass.
How the values were obtained:
Format in all cases: functional
SF-268 = test: Cytotoxicity against human SF268 cells
MCF7 = test: Cytotoxicity against human MCF7 cells
NCI-H460 = test: Cytotoxicity against human H460 cells

CC(C)CC(=O)c1c2c(c3oc(=O)cc(-c4ccccc4)c3c1O)C[C@@H](C(C)(C)O)O2 [CYCLOMAMMEISIN]
GI50 (SF-268): 5.2 µg/mL (≈ 12.3 µM)
GI50 (MCF7): 4.2 µg/mL (≈ 9.94 µM)
GI50 (NCI-H460): 4.6 µg/mL (≈ 10.9 µM)

CC(C)=CCc1c(O)c(C(=O)CC(C)C)c2oc(=O)cc(-c3ccccc3)c2c1O [ISOMAMMEISIN]
GI50 (SF-268): 0.6 µg/mL (≈ 1.48 µM)
GI50 (MCF7): 0.7 µg/mL (≈ 1.72 µM)
GI50 (NCI-H460): 0.8 µg/mL (≈ 1.97 µM)

CC(C)=CCc1c(O)cc(O)c2c(-c3ccccc3)cc(=O)oc12
GI50 (SF-268): 4.8 µg/mL (≈ 14.9 µM)
GI50 (MCF7): 3.4 µg/mL (≈ 10.5 µM)
GI50 (NCI-H460): 4.4 µg/mL (≈ 13.6 µM)

COc1c(C(=O)CC(C)C)c(O)c(CC=C(C)C)c2oc(=O)cc(-c3ccccc3)c12
GI50 (SF-268): 0.4 µg/mL (≈ 0.951 µM)
GI50 (MCF7): 0.4 µg/mL (≈ 0.951 µM)
GI50 (NCI-H460): 0.5 µg/mL (≈ 1.19 µM)

C=C(C)C(O)Cc1c(O)c(C(=O)CC(C)C)c(O)c2c(-c3ccccc3)cc(=O)oc12 (configuration not stated) [DISPARINOL A]
GI50 (SF-268): 0.5 µg/mL (≈ 1.18 µM)
GI50 (MCF7): 0.9 µg/mL (≈ 2.13 µM)
GI50 (NCI-H460): 0.6 µg/mL (≈ 1.42 µM)

CC(=O)Oc1c(C(=O)CC(C)C)c(OC(C)=O)c2c(-c3ccccc3)cc(=O)oc2c1CC=C(C)C [MAMMEISIN DIACETATE]
GI50 (SF-268): 0.5 µg/mL
GI50 (MCF7): 0.6 µg/mL
GI50 (NCI-H460): 0.6 µg/mL

CC(C)CC(=O)c1c2c(c3oc(=O)cc(-c4ccccc4)c3c1O)C=CC(C)(C)O2 [MAMMEIGIN]
GI50 (SF-268): > 10 µg/mL
GI50 (MCF7): > 10 µg/mL
GI50 (NCI-H460): > 10 µg/mL

CC(C)=CCc1c(O)c(C(=O)C(C)C)c2oc(=O)cc(-c3ccccc3)c2c1O [ISOMESUOL]
GI50 (SF-268): 0.6 µg/mL (≈ 1.53 µM)
GI50 (MCF7): 0.7 µg/mL (≈ 1.78 µM)
GI50 (NCI-H460): 0.6 µg/mL (≈ 1.53 µM)

CC1(C)CCc2c(cc(O)c3c(-c4ccccc4)cc(=O)oc23)O1
GI50 (SF-268): 7.8 µg/mL (≈ 24.2 µM)
GI50 (MCF7): 5.7 µg/mL (≈ 17.7 µM)
GI50 (NCI-H460): 6.7 µg/mL (≈ 20.8 µM)

CCC(C)C(=O)c1c2c(c3oc(=O)cc(-c4ccccc4)c3c1O)C=CC(C)(C)O2 (configuration not stated)
GI50 (SF-268): > 10 µg/mL
GI50 (MCF7): 9.6 µg/mL (≈ 23.7 µM)
GI50 (NCI-H460): > 10 µg/mL

CCC(C)C(=O)c1c2c(c3oc(=O)cc(-c4ccccc4)c3c1O)C[C@@H](C(C)(C)O)O2 (some centres not stated)
GI50 (SF-268): 4.8 µg/mL (≈ 11.4 µM)
GI50 (MCF7): 3.4 µg/mL (≈ 8.05 µM)
GI50 (NCI-H460): 4.4 µg/mL (≈ 10.4 µM)

CCC(C)C(=O)c1c(O)c(CC=C(C)C)c2oc(=O)cc(-c3ccccc3)c2c1O (configuration not stated)
GI50 (SF-268): 0.1 µg/mL (≈ 0.246 µM)
GI50 (MCF7): 0.2 µg/mL (≈ 0.492 µM)
GI50 (NCI-H460): 0.1 µg/mL (≈ 0.246 µM)

CC(C)C(=O)c1c2c(c3oc(=O)cc(-c4ccccc4)c3c1O)C[C@@H](C(C)(C)O)O2 [MESUOL CYCLO F]
GI50 (SF-268): 6.4 µg/mL (≈ 15.7 µM)
GI50 (MCF7): 5.8 µg/mL (≈ 14.2 µM)
GI50 (NCI-H460): 6.1 µg/mL (≈ 14.9 µM)

CC(C)=CCc1c(O)c(C(=O)CC(C)C)c(O)c2c(-c3ccccc3)cc(=O)oc12 [MAMMEISIN]
GI50 (SF-268): 0.1 µg/mL (≈ 0.246 µM)
GI50 (MCF7): 0.2 µg/mL (≈ 0.492 µM)
GI50 (NCI-H460): 0.2 µg/mL (≈ 0.492 µM)

CC(C)C(=O)c1c2c(c3oc(=O)cc(-c4ccccc4)c3c1O)C=CC(C)(C)O2 [MESUAGIN]
GI50 (SF-268): > 10 µg/mL
GI50 (MCF7): > 10 µg/mL
GI50 (NCI-H460): > 10 µg/mL

CCC(C)C(=O)c1c(O)c(CC=C(C)C)c(O)c2c(-c3ccccc3)cc(=O)oc12 (configuration not stated)
GI50 (SF-268): 0.1 µg/mL (≈ 0.246 µM)
GI50 (MCF7): 0.2 µg/mL (≈ 0.492 µM)
GI50 (NCI-H460): 0.3 µg/mL (≈ 0.738 µM)

CCC(=O)c1c2c(c3oc(=O)cc(-c4ccccc4)c3c1O)CCC(C)(C)O2
GI50 (SF-268): 6.8 µg/mL (≈ 18 µM)
GI50 (MCF7): 4.7 µg/mL (≈ 12.4 µM)
GI50 (NCI-H460): 5.7 µg/mL (≈ 15.1 µM)

CC(C)=CCc1c(O)c(C(=O)C(C)C)c(O)c2c(-c3ccccc3)cc(=O)oc12 [MESUOL]
GI50 (SF-268): 0.1 µg/mL (≈ 0.255 µM)
GI50 (MCF7): 0.2 µg/mL (≈ 0.51 µM)
GI50 (NCI-H460): 0.3 µg/mL (≈ 0.764 µM)

CC(C)CC(=O)c1c(O)cc(O)c2c(-c3ccccc3)cc(=O)oc12 [ISODISPAR B]
GI50 (SF-268): 1.8 µg/mL (≈ 5.32 µM)
GI50 (MCF7): 1.5 µg/mL (≈ 4.43 µM)
GI50 (NCI-H460): 1.9 µg/mL (≈ 5.62 µM)

— ChEMBL document CHEMBL1158702, “Cytotoxic 4-phenylcoumarins from the leaves of Marila pluricostata” (2005)
